Patent US9302991B2, “Arylamide derivatives as TTX-S blockers” (RaQualia Pharma Inc., priority 2010, dated 2016)

How the values were obtained:
human Nav1.3 channels = molecular target: T1, human Nav1.3 channels (Homo sapiens, UniProt Q9NY46); assay: FRET assay, human Nav1.3 (EFS on FDSS); type: cell-based; details: HEK293 cells expressing human Nav1.3, read-out: IC50 against Nav1.3
T1 construct: expressed in transfected cells; host or cells: HEK293
Summary of the method: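 HEK293 cells expressing the channel, loaded with 10 microM CC2-DMPE then 15 microM DiSBAC2(3) plus 0.555 mM VABSC-1 in pH 7.4 HEPES buffer at room temperature. Membrane potential changes evoked by electrical field stimulation after compound addition; IC50 from 440 nm-normalized FRET ratios.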

human Nav1.7 channels = molecular target: T2, human Nav1.7 channels (Homo sapiens, UniProt Q15858); assay: FRET assay, human Nav1.7 (EFS on FDSS); type: cell-based; details: CHO cells expressing human Nav1.7, read-out: IC50 against Nav1.7
T2 construct: expressed in transfected cells; host or cells: CHO
Summary of the method: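 IC50 was derived from normalized 440 nm fluorescence ratios of the EFS-evoked membrane-potential response read on FDSS. Recombinant CHO cells were sequentially dye-loaded with coumarin/oxonol FRET pair at room temperature in pH 7.4 buffer before compound addition.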

T1 sequence (Q9NY46 whole entry): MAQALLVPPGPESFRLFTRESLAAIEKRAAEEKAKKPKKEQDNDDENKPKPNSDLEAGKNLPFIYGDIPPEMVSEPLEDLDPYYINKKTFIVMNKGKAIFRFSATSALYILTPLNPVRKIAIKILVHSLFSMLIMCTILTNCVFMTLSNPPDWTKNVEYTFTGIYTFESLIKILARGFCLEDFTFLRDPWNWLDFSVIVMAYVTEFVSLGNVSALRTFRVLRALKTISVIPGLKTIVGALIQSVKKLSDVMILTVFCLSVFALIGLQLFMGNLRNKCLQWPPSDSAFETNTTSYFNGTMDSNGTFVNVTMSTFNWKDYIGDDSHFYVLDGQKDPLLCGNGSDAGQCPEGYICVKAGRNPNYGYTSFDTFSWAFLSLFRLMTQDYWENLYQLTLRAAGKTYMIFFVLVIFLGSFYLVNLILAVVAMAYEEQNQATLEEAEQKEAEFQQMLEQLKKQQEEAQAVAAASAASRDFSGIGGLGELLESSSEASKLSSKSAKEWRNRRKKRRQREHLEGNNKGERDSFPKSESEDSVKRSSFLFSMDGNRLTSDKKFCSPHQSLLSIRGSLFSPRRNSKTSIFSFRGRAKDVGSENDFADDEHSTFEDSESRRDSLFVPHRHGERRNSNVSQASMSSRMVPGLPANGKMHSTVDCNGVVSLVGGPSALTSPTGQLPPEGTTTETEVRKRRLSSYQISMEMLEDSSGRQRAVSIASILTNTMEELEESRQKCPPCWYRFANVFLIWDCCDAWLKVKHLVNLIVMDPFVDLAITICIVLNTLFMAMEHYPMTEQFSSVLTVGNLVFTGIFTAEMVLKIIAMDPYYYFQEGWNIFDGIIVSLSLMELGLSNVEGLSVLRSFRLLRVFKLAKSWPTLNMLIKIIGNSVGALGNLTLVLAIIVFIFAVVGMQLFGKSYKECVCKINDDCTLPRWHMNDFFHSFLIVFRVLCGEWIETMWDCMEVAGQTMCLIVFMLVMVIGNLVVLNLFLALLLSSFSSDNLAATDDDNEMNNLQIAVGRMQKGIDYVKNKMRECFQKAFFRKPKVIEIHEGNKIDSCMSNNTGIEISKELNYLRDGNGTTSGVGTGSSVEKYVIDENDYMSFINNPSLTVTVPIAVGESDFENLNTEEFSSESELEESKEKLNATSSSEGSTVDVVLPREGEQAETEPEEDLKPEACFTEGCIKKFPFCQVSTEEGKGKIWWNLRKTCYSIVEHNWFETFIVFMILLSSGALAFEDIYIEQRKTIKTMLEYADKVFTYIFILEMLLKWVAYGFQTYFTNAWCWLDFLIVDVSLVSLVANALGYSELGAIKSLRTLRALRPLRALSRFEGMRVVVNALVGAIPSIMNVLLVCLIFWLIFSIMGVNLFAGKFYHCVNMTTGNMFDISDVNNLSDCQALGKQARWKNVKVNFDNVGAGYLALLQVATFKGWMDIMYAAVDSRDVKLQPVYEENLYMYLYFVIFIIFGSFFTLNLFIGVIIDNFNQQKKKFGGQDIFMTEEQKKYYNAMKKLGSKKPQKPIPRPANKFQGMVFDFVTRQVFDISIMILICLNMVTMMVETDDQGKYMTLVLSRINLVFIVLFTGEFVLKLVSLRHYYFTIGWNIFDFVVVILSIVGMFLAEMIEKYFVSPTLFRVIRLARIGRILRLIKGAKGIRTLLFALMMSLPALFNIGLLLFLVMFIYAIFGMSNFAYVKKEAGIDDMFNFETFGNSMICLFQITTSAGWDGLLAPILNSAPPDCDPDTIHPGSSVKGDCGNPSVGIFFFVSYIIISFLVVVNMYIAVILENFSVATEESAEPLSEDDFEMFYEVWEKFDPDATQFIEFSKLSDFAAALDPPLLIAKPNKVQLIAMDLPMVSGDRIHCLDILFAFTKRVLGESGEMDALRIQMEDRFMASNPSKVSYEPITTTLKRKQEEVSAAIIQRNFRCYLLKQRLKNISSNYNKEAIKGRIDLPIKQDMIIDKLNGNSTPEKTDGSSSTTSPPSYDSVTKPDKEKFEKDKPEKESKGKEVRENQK
T2 sequence (Q15858 whole entry): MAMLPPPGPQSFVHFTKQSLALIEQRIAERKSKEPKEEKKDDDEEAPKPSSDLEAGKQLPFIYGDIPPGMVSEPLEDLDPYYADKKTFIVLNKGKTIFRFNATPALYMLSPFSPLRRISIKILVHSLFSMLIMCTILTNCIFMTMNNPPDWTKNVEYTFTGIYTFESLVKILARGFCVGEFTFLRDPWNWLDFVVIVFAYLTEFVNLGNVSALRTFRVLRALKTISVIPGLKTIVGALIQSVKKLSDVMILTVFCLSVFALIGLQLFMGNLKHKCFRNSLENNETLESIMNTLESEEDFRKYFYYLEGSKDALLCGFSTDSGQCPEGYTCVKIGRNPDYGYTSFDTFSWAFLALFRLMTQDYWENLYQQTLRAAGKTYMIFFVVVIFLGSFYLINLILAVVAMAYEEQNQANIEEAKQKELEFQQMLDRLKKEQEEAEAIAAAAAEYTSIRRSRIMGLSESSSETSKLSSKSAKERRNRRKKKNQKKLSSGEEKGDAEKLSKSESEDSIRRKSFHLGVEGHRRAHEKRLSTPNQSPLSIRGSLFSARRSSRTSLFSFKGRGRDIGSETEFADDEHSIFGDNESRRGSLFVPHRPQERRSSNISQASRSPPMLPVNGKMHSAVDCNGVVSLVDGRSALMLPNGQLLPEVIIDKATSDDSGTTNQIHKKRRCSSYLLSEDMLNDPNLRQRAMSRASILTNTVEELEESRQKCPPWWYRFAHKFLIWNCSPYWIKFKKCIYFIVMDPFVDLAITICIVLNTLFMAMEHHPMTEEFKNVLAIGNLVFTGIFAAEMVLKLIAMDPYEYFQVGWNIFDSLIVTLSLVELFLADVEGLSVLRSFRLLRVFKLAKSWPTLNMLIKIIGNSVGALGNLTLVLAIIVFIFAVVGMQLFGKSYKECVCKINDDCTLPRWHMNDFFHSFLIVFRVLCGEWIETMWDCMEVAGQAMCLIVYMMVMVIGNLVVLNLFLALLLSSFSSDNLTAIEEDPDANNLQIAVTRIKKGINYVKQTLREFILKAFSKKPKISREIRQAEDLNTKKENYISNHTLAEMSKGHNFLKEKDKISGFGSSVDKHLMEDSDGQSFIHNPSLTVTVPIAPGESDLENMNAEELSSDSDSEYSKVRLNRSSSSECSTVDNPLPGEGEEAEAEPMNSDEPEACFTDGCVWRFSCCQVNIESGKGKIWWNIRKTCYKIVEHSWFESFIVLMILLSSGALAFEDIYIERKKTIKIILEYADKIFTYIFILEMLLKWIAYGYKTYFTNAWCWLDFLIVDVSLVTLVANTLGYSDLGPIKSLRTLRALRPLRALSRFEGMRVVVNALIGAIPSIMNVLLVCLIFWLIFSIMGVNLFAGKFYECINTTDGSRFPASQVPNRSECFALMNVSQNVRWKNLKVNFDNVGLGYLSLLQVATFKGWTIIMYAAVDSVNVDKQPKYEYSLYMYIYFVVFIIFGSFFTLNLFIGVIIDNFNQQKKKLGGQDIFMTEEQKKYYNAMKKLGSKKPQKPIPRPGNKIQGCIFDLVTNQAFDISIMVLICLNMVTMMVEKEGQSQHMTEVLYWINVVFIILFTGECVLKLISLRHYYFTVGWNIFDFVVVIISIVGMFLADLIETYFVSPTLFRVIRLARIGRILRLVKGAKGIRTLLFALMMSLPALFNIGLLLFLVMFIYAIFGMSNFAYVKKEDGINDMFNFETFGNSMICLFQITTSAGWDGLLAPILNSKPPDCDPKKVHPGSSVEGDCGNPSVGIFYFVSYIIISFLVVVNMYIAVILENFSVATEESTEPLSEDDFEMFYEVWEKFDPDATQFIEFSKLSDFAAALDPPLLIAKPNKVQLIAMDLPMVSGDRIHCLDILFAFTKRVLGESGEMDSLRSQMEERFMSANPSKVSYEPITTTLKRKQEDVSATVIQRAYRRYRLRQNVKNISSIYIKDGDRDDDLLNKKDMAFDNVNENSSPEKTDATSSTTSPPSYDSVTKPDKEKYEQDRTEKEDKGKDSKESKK

Compound	IC50 (human Nav1.3 channels)	IC50 (human Nav1.7 channels)
Cc1cc(C(=O)NC(C)c2cnc(OCC(F)(F)F)c(C)c2)cc(NC(=O)C2CC2)n1 (single isomer, unassigned) [Example 823, 2-(cyclopropanecarboxamido)-6-methyl-N-(1-(5-methyl-6-(2,2,2-trifluoroethoxy)pyridin-3-yl)ethyl)isonicotinamide]	< 1000 nM	< 1000 nM
CC(=O)Nc1cc(C(=O)NCc2cc(C)cc(OC(F)(F)F)c2)cc(C)n1 [Example 602, 2-acetamido-6-methyl-N-(3-methyl-5-(trifluoromethoxy)benzyl)isonicotinamide]	< 1000 nM	< 1000 nM
CC(=O)Nc1cc(C(=O)NCc2cccc(C(F)(F)F)c2C)cc(C)n1 [Example 815, 2-acetamido-6-methyl-N-(2-methyl-3-(trifluoromethyl)benzyl)isonicotinamide]	< 1000 nM	< 1000 nM
CC(=O)Nc1cc(C(=O)NCc2cnc(OCC(F)(F)F)c(Br)c2)cc(C)n1 [Example 899, 2-acetamido-N-((5-bromo-6-(2,2,2-trifluoroethoxy)pyridin-3-yl)methyl)-6-methylisonicotinamide]	< 1000 nM	< 1000 nM
CCC(=O)Nc1cc(C(=O)NCc2cccc(OC(F)(F)F)c2)cc(C)n1 [Example 526, 2-methyl-6-propionamido-N-(3-(trifluoromethoxy)benzyl)isonicotinamide]	< 1000 nM	< 1000 nM
Cc1cc(C(=O)NCc2cccc(OC(F)(F)F)c2)cc(NC(=O)C(C)C)n1 [Example 528, 2-isobutyramido-6-methyl-N-(3-(trifluoromethoxy)benzyl)isonicotinamide]	< 1000 nM	< 1000 nM
CCC(=O)Nc1cc(C(=O)NC(C)c2cnc(OCC(F)F)c(C)c2)cc(C)n1 (single isomer, unassigned) [Example 554, N-(1-(6-(2,2-difluoroethoxy)-5-methylpyridin-3-yl)ethyl)-2-methyl-6-propionamidoisonicotinamide]	< 1000 nM	< 1000 nM
CCC(=O)Nc1cc(C(=O)NCc2cnc(OCC(F)F)c(CC)c2)ccn1 [Example 930, N-((6-(2,2-difluoroethoxy)-5-ethylpyridin-3-yl)methyl)-2-propionamidoisonicotinamide]	< 1000 nM	< 1000 nM
Cc1cc(C(=O)NCc2ccc(OCC(F)(F)F)c(C)c2)cc(NC(=O)C2CC2)n1 [Example 831, 2-(cyclopropanecarboxamido)-6-methyl-N-(3-methyl-4-(2,2,2-trifluoroethoxy)benzyl)isonicotinamide]	< 1000 nM	< 1000 nM
Cc1cc(C(C)NC(=O)c2ccnc(NC(=O)C3CCC3)n2)cnc1OCC(F)(F)F (single isomer, unassigned) [Example 226, 2-(cyclobutanecarboxamido)-N-(1-(5-methyl-6-(2,2,2-trifluoroethoxy)pyridin-3-yl)ethyl)pyrimidine-4-carboxamide]	< 1000 nM	< 1000 nM
CCC(=O)Nc1cc(C(=O)NCc2cccc(OC(F)(F)F)c2)ccn1 [Example 523, 2-propionamido-N-(3-(trifluoromethoxy)benzyl)isonicotinamide]	< 1000 nM	< 1000 nM
O=C(NCc1cnc(OCC(F)(F)F)c(Cl)c1)c1ccnc(NC(=O)C2CC2)n1 [Example 411, N-((5-chloro-6-(2,2,2-trifluoroethoxy)pyridin-3-yl)methyl)-2-(cyclopropanecarboxamido)pyrimidine-4-carboxamide]	< 1000 nM	< 1000 nM
CCC(=O)Nc1cc(C(=O)NC(C)c2cnc(OCC(F)(F)F)c(C)c2)cc(C)n1 (single isomer, unassigned) [Example 132, 2-methyl-N-(1-(5-methyl-6-(2,2,2-trifluoroethoxy)pyridin-3-yl)ethyl)-6-propionamidoisonicotinamide]	< 1000 nM	< 1000 nM

The next lines start with the values.

IC50 (human Nav1.3 channels)	IC50 (human Nav1.7 channels)	Compound
< 1000 nM	< 1000 nM	Cc1cc(CNC(=O)c2ccnc(NC(=O)C3CC3)n2)cnc1OCC(F)(F)C(F)F [Example 943, 2-(cyclopropanecarboxamido)-N-((5-methyl-6-(2,2,3,3-tetrafluoropropoxy)pyridin-3-yl)methyl)pyrimidine-4-carboxamide]
< 1000 nM	< 1000 nM	Cc1cc(C(=O)NCc2ccc(OC(F)(F)F)c(C)c2)cc(NC(=O)C(C)C)n1 [Example 809, 2-isobutyramido-6-methyl-N-(3-methyl-4-(trifluoromethoxy)benzyl)isonicotinamide]
< 1000 nM	< 1000 nM	Cc1cc(C(C)NC(=O)c2ccnc(NC(=O)C3CC3)c2)cnc1OCC(F)(F)C(F)F (single isomer, unassigned) [Example 926, 2-(cyclopropanecarboxamido)-N-(1-(5-methyl-6-(2,2,3,3-tetrafluoropropoxy)pyridin-3-yl)ethyl)isonicotinamide]
< 1000 nM	< 1000 nM	COc1nc(OCC(F)(F)F)ccc1CNC(=O)c1ccnc(NC(C)=O)c1 [Example 148, 2-acetamido-N-((2-methoxy-6-(2,2,2-trifluoroethoxy)pyridin-3-yl)methyl)isonicotinamide]
< 1000 nM	< 1000 nM	CCC(=O)Nc1cc(C(=O)NCc2ccc(OCC(F)(F)C(F)(F)F)nc2)cc(C)n1 [Example 643, 2-methyl-N-((6-(2,2,3,3,3-pentafluoropropoxy)pyridin-3-yl)methyl)-6-propionamidoisonicotinamide]
< 1000 nM	< 1000 nM	CC(=O)Nc1cc(C(=O)NCc2cc(C)cc(OC(F)(F)F)c2)ccn1 [Example 597, 2-acetamido-N-(3-methyl-5-(trifluoromethoxy)benzyl)isonicotinamide]
< 1000 nM	< 1000 nM	CCC(=O)Nc1cc(C(=O)NCc2cccc(C(F)(F)F)c2)cc(C)n1 [Example 127, 2-methyl-6-propionamido-N-(3-(trifluoromethyl)benzyl)isonicotinamide]
< 1000 nM	< 1000 nM	Cc1cc(C(=O)NCc2ccc(OCC(F)(F)F)c(C)c2)cc(NC(=O)C(C)C)n1 [Example 794, 2-isobutyramido-6-methyl-N-(3-methyl-4-(2,2,2-trifluoroethoxy)benzyl)isonicotinamide]
< 1000 nM	< 1000 nM	Cc1cc(C(=O)NCc2cnc(OCC(F)(F)C(F)F)c(C)c2)nc(NC(=O)C2CC2)n1 [Example 947, 2-(cyclopropanecarboxamido)-6-methyl-N-((5-methyl-6-(2,2,3,3-tetrafluoropropoxy)pyridin-3-yl)methyl)pyrimidine-4-carboxamide]
< 1000 nM	< 1000 nM	CC(=O)Nc1cc(C(=O)NCc2cccc(OC(F)(F)F)c2F)cc(C)n1 [Example 751, 2-acetamido-N-(2-fluoro-3-(trifluoromethoxy)benzyl)-6-methylisonicotinamide]
< 1000 nM	< 1000 nM	CCC(=O)Nc1nc(C)cc(C(=O)NC(C)c2cnc(OCC(F)(F)F)c(C)c2)n1 (single isomer, unassigned) [Example 227, 6-methyl-N-(1-(5-methyl-6-(2,2,2-trifluoroethoxy)pyridin-3-yl)ethyl)-2-propionamidopyrimidine-4-carboxamide]
< 1000 nM	< 1000 nM	COc1nc(OCC(F)(F)F)ccc1CNC(=O)c1cc(C)nc(NC(=O)C(C)C)c1 [Example 494, 2-isobutyramido-N-((2-methoxy-6-(2,2,2-trifluoroethoxy)pyridin-3-yl)methyl)-6-methylisonicotinamide]
< 1000 nM	< 1000 nM	Cc1c(CNC(=O)c2ccnc(NC(=O)C(C)C)c2)cccc1C(F)(F)F [Example 816, 2-isobutyramido-N-(2-methyl-3-(trifluoromethyl)benzyl)isonicotinamide]
< 1000 nM	< 1000 nM	CCC(=O)Nc1cc(C(=O)NCc2cc(C)cc(OC(F)(F)F)c2)cc(C)n1 [Example 600, 2-methyl-N-(3-methyl-5-(trifluoromethoxy)benzyl)-6-propionamidoisonicotinamide]
< 1000 nM	< 1000 nM	Cc1cc(CNC(=O)c2ccnc(NC(=O)C3CC3)c2)ccc1OC(F)(F)F [Example 806, 2-(cyclopropanecarboxamido)-N-(3-methyl-4-(trifluoromethoxy)benzyl)isonicotinamide]
< 1000 nM	< 1000 nM	COc1cc(CNC(=O)c2cc(C)nc(NC(=O)C(C)C)c2)cnc1OCC(F)(F)F [Example 492, 2-isobutyramido-N-((5-methoxy-6-(2,2,2-trifluoroethoxy)pyridin-3-yl)methyl)-6-methylisonicotinamide]
< 1000 nM	< 1000 nM	Cc1cc(C(=O)NCc2cccc(C(F)(F)F)c2)cc(NC(=O)C(C)C)n1 [Example 534, 2-isobutyramido-6-methyl-N-(3-(trifluoromethyl)benzyl)isonicotinamide]
< 1000 nM	< 1000 nM	Cc1cc(CNC(=O)c2ccnc(NC(=O)C3CC3)n2)cnc1OCC(F)(F)F [Example 564, 2-(cyclopropanecarboxamido)-N-((5-methyl-6-(2,2,2-trifluoroethoxy)pyridin-3-yl)methyl)pyrimidine-4-carboxamide]
< 1000 nM	< 1000 nM	COc1nc(OCC(F)(F)F)ccc1CNC(=O)c1ccnc(NC(=O)C(C)C)c1 [Example 171, 2-isobutyramido-N-((2-methoxy-6-(2,2,2-trifluoroethoxy)pyridin-3-yl)methyl)isonicotinamide]
< 1000 nM	< 1000 nM	CC(C)C(=O)Nc1cc(C(=O)NCc2cccc(C(F)(F)F)c2)ccn1 [Example 533, 2-isobutyramido-N-(3-(trifluoromethyl)benzyl)isonicotinamide]
